Results as given in ChEMBL document CHEMBL4196012 (Eur J Med Chem, 2018).

What was measured:
Escherichia coli [1] = assay: In vivo antibacterial activity against Escherichia coli NCTC 10419 infected in po dosed mouse administered at 1 and 4 hrs post infection; format: functional, organism-based
Staphylococcus aureus [2] = assay: Potency index, ratio of ciprofloxacin MIC to compound MIC for antibacterial activity against vancomycin-insensitive Staphylococcus aureus; format: functional
[3] = Partition coefficient, log P of the compound; format: physicochemical; conditions: octanol/water
Staphylococcus aureus [4] = assay: Antibacterial activity against Staphylococcus aureus ATCC 29213 after 16 to 20 hrs by NCCLS microdilution method; format: functional
Staphylococcus aureus [5] = assay: Antibacterial activity against quinolone-resistant Staphylococcus aureus after 16 to 20 hrs by NCCLS microdilution method; format: functional
Staphylococcus aureus [6] = assay: Antibacterial activity against linezolid-resistant Staphylococcus aureus after 16 to 20 hrs by NCCLS microdilution method; format: functional
Enterococcus faecalis [7] = assay: Antibacterial activity against Enterococcus faecalis ATCC 29212 after 16 to 20 hrs by NCCLS microdilution method; format: functional
Enterococcus faecalis [8] = assay: Antibacterial activity against linezolid-resistant Enterococcus faecalis after 16 to 20 hrs by NCCLS microdilution method; format: functional
Enterococcus faecium = assay: Antibacterial activity against vancomycin and quinolone-resistant Enterococcus faecium after 16 to 20 hrs by NCCLS microdilution method; format: functional
Streptococcus pneumoniae [9] = assay: Antibacterial activity against Streptococcus pneumoniae ATCC 49619 after 16 to 20 hrs by NCCLS microdilution method; format: functional
Streptococcus pneumoniae [10] = assay: Antibacterial activity against quinolone-resistant Streptococcus pneumoniae after 16 to 20 hrs by NCCLS microdilution method; format: functional
Haemophilus influenzae = assay: Antibacterial activity against Haemophilus influenzae 11 after 16 to 20 hrs by NCCLS microdilution method; format: functional
Moraxella catarrhalis = assay: Antibacterial activity against Moraxella catarrhalis ATCC 8176 after 16 to 20 hrs by NCCLS microdilution method; format: functional
Escherichia coli [11] = assay: Antibacterial activity against Escherichia coli ATCC 25922 after 16 to 20 hrs by NCCLS microdilution method; format: functional
[12] = system: Yersinia pseudotuberculosis; assay: Antibacterial activity against Yersinia pseudotuberculosis ATCC 911 after 18 to 24 hrs by double microdilution method; format: functional
Enterococcus faecalis [13] = assay: Antibacterial activity against Enterococcus faecalis ATCC 29212 after 18 to 24 hrs by double microdilution method; format: functional
Staphylococcus aureus [14] = assay: Antibacterial activity against Staphylococcus aureus ATCC 25923 after 18 to 24 hrs by double microdilution method; format: functional
Bacillus cereus = assay: Antibacterial activity against Bacillus cereus 709 Roma after 18 to 24 hrs by double microdilution method; format: functional
[15] = system: Mycolicibacterium smegmatis; assay: Antibacterial activity against Mycobacterium smegmatis ATCC 607 after 48 to 72 hrs by double microdilution method; format: functional
Escherichia coli [16] = assay: Antibacterial activity against Escherichia coli ATCC 35218 after 18 to 24 hrs by double microdilution method; format: functional
Pseudomonas aeruginosa [17] = assay: Antibacterial activity against Pseudomonas aeruginosa ATCC 10145 after 18 to 24 hrs by double microdilution method; format: functional
Bacillus subtilis = assay: Antibacterial activity against Bacillus subtilis NCDC 71 after overnight incubation by single disc method; format: functional
Escherichia coli [18] = assay: Antibacterial activity against Escherichia coli NCDC 134 after overnight incubation by single disc method; format: functional
Pseudomonas aeruginosa [19] = assay: Antibacterial activity against Pseudomonas aeruginosa NCDC105 after overnight incubation by single disc method; format: functional
Paenibacillus polymyxa = assay: Antibacterial activity against Paenibacillus polymyxa NCDC 64 after overnight incubation by single disc method; format: functional
Staphylococcus aureus [20] = assay: Antibacterial activity against Staphylococcus aureus NCDC 110 after overnight incubation by single disc method; format: functional

COc1cc(Cc2cnc(/N=C3\C(=O)N(CN4CCN(c5cc6c(cc5F)c(=O)c(C(=O)O)cn6C5CC5)CC4)c4ccc(C)cc43)nc2N)cc(OC)c1OC
0.62 mg/kg: EC50 (Escherichia coli [1])

CCn1cc(C(=O)O)c(=O)c2cnc(N3CCN(Cc4ccc(CN5CCN(c6cc7c(cc6F)c(=O)c(C(=O)O)cn7C6CC6)CC5)cc4)CC3)nc21
>4: Ratio (Staphylococcus aureus [2])

COC(=O)c1cn(C2CC2)c2cc(N3CCNCC3)c(F)cc2c1=O
-0.441: logP [3]

CCCOC(=O)c1cn(C2CC2)c2cc(N3CCNCC3)c(F)cc2c1=O
0.437: logP [3]

CC(=O)NC[C@H]1CN(c2ccc(N3CCN(c4cc5c(cc4F)c(=O)c(C(=O)O)cn5C4CC4)CC3)c(F)c2)C(=O)O1
0.25 to 0.5 µg/mL: MIC (Staphylococcus aureus [5]) | MIC (Enterococcus faecium) | MIC (Streptococcus pneumoniae [10])
0.125 to 4 µg/mL: MIC (Staphylococcus aureus [4]) | MIC (Staphylococcus aureus [6]) | MIC (Enterococcus faecalis [7]) | MIC (Enterococcus faecalis [8]) | MIC (Streptococcus pneumoniae [9]) | MIC (Haemophilus influenzae) | MIC (Moraxella catarrhalis) | MIC (Escherichia coli [11])

CCn1c(CNc2ccc(N3CCN(c4ccc(F)cc4)CC3)c(F)c2)nn(CN2CCN(c3cc4c(cc3F)c(=O)c(C(=O)O)cn4C3CC3)CC2)c1=S
< 0.24 µg/mL: MIC [12] | MIC (Enterococcus faecalis [13]) | MIC (Staphylococcus aureus [14]) | MIC (Bacillus cereus) | MIC [15] | MIC (Escherichia coli [16]) | MIC (Pseudomonas aeruginosa [17])

O=C(CN1CCN(c2cc3c(cc2F)c(=O)c(C(=O)O)cn3C2CC2)CC1)Nc1nc2ccc([N+](=O)[O-])cc2s1
3 to 125 µg/mL: MIC (Bacillus subtilis) | MIC (Escherichia coli [18]) | MIC (Pseudomonas aeruginosa [19]) | MIC (Paenibacillus polymyxa) | MIC (Staphylococcus aureus [20])

O=C(CN1CCN(c2cc3c(cc2F)c(=O)c(C(=O)O)cn3C2CC2)CC1)Nc1nc2ccc(Cl)cc2s1
3 to 15 µg/mL: MIC (Bacillus subtilis) | MIC (Escherichia coli [18]) | MIC (Pseudomonas aeruginosa [19]) | MIC (Paenibacillus polymyxa) | MIC (Staphylococcus aureus [20])

COc1ccccc1N1CCN(Cc2nn(CN3CCN(c4cc5c(cc4F)c(=O)c(C(=O)O)cn5C4CC4)CC3)c(=O)n2Cc2ccccc2)CC1
< 0.24 µg/mL: MIC [12] | MIC (Enterococcus faecalis [13]) | MIC (Staphylococcus aureus [14]) | MIC (Bacillus cereus) | MIC [15] | MIC (Escherichia coli [16]) | MIC (Pseudomonas aeruginosa [17])

COc1ccccc1N1CCN(Cc2nn(CN3CCN(c4cc5c(cc4F)c(=O)c(C(=O)O)cn5C4CC4)CC3)c(=S)n2Cc2ccccc2)CC1
< 0.24 µg/mL: MIC [12] | MIC (Enterococcus faecalis [13]) | MIC (Staphylococcus aureus [14]) | MIC (Bacillus cereus) | MIC [15] | MIC (Escherichia coli [16]) | MIC (Pseudomonas aeruginosa [17])

O=C(O)c1cn(C2CC2)c2cc(N3CCN(Cn4nc(CNc5ccc(N6CCN(c7ccc(F)cc7)CC6)c(F)c5)n(Cc5ccccc5)c4=S)CC3)c(F)cc2c1=O
< 0.24 µg/mL: MIC [12] | MIC (Enterococcus faecalis [13]) | MIC (Staphylococcus aureus [14]) | MIC (Bacillus cereus) | MIC [15] | MIC (Escherichia coli [16]) | MIC (Pseudomonas aeruginosa [17])

O=C(CN1CCN(c2cc3c(cc2F)c(=O)c(C(=O)O)cn3C2CC2)CC1)Nc1nc2c(Cl)ccc(Cl)c2s1
3 to 125 µg/mL: MIC (Bacillus subtilis) | MIC (Escherichia coli [18]) | MIC (Pseudomonas aeruginosa [19]) | MIC (Paenibacillus polymyxa) | MIC (Staphylococcus aureus [20])
